Columns and labels:
Format in all cases: in vivo
Conditions in all cases: 0 to 100 scale (0 no effect, 100 complete control)
kochia (Kochia scoparia) [1] = assay: Test A postemergence, kochia
Excerpt: (§1) Test A Seeds of plant species selected from barnyardgrass (Echinochloa crus-galli), kochia (Kochia scoparia), ragweed (common ragweed, Ambrosia elatior), ryegrass, Italian (Lolium multiflorum), foxtail, giant (Setaria faberii), and pigweed (Amaranthus retroflexus), were planted into a blend of loam soil and sand and treated preemergence with a directed soil spray using test chemicals formulated in a non-phytotoxic solvent mixture which included a surfactant.
(§2) At the same time, plants selected from these weed species and also blackgrass (Alopecurus myosuroides), galium (catchweed bedstraw, Galium aparine), wheat (Triticum aestivum), and corn (Zea mays) were planted in pots containing the same blend of loam soil and sand and treated with postemergence applications of test chemicals formulated in the same manner. Plants ranged in height from 2 to 10 cm and were in the one- to two-leaf stage for the postemergence treatment. Treated plants and untreated controls were maintained in a greenhouse for approximately 10 days, after which time all treated plants were compared to untreated controls and visually evaluated for injury. Plant response ratings, summarized in Table A, are based on a 0 to 100 scale where 0 is no effect and 100 is complete control. A dash (-) response means no test result.

[2] = system: ragweed (common ragweed, Ambrosia elatior); assay: Test A postemergence, ragweed
Excerpt: as §1, §2

kochia (Kochia scoparia) [3] = assay: Test A preemergence, kochia
Excerpt: as §1, §2

corn (Zea mays) = assay: Test A postemergence, corn
Excerpt: as §1, §2

[4] = system: foxtail, giant (Setaria faberii); assay: Test A preemergence, giant foxtail
Excerpt: as §1, §2

[5] = system: pigweed (Amaranthus retroflexus); assay: Test A preemergence, pigweed
Excerpt: as §1, §2

[6] = system: ryegrass, Italian (Lolium multiflorum); assay: Test A preemergence, Italian ryegrass
Excerpt: as §1, §2

[7] = system: barnyardgrass (Echinochloa crus-galli); assay: Test A preemergence, barnyardgrass
Excerpt: as §1, §2

[8] = system: blackgrass (Alopecurus myosuroides); assay: Test A postemergence, blackgrass
Excerpt: as §1, §2

[9] = system: ragweed (common ragweed, Ambrosia elatior); assay: Test A preemergence, ragweed
Excerpt: as §1, §2

[10] = system: wheat (Triticum aestivum); assay: Test A postemergence, wheat
Excerpt: as §1, §2

[11] = system: barnyardgrass (Echinochloa crus-galli); assay: Test A postemergence, barnyardgrass
Excerpt: as §1, §2

[12] = system: ryegrass, Italian (Lolium multiflorum); assay: Test A postemergence, Italian ryegrass
Excerpt: as §1, §2

[13] = system: pigweed (Amaranthus retroflexus); assay: Test A postemergence, pigweed
Excerpt: as §1, §2

[14] = system: foxtail, giant (Setaria faberii); assay: Test A postemergence, giant foxtail
Excerpt: as §1, §2

[15] = system: galium (catchweed bedstraw, Galium aparine); assay: Test A postemergence, galium
Excerpt: as §1, §2

[16] = 125 g ai/ha, visual injury, approximately 10 days
[17] = 500 g ai/ha, visual injury, approximately 10 days

| SMILES | Plant response rating, Kochia (kochia (Kochia scoparia) [1]; [16]) | Plant response rating, Ragweed [2, 16] | Plant response rating, Kochia (kochia (Kochia scoparia) [3]; 125 g ai/ha) | Plant response rating, Corn (corn (Zea mays); [16]) | Plant response rating, Foxtail, Giant ([4]; 125 g ai/ha) | Plant response rating, Pigweed ([5]; 125 g ai/ha) | Plant response rating, Ryegrass, Italian ([6]; 125 g ai/ha) | Plant response rating, Barnyardgrass ([7]; 125 g ai/ha) | Plant response rating, Blackgrass [8, 16] | Plant response rating, Ragweed ([9]; 125 g ai/ha) | Plant response rating, Wheat [10, 16] | Plant response rating, Barnyardgrass [11, 16] | Plant response rating, Ryegrass, Italian [12, 16] | Plant response rating, Pigweed [13, 16] | Plant response rating, Foxtail, Giant [14, 16] | Plant response rating, Galium [15, 16] | Plant response rating, Kochia (kochia (Kochia scoparia) [1]; [17]) | Plant response rating, Ragweed [2, 17] | Plant response rating, Kochia (kochia (Kochia scoparia) [3]; 500 g ai/ha) | Plant response rating, Corn (corn (Zea mays); [17]) | further results |
| --- | --- | --- | --- | --- | --- | --- | --- | --- | --- | --- | --- | --- | --- | --- | --- | --- | --- | --- | --- | --- | --- |
| CN1CC(c2cccc(Oc3ncc(F)cc3F)c2)C(C(=O)Nc2ccc(F)c(F)c2F)C1=O (single isomer, unassigned) [Compound 74] | 50 | 20 | 40 | 20 | 100 | 80 | 80 | 90 | 20 | 0 | 20 | 90 | 30 | 60 | 80 | 70 |  |  |  |  | Plant response rating, Kochia (kochia (Kochia scoparia) [1]; 31 g ai/ha): 20; Plant response rating, Ragweed ([2]; 31 g ai/ha): 0; Plant response rating, Kochia (kochia (Kochia scoparia) [3]; 31 g ai/ha): 0; Plant response rating, Corn (corn (Zea mays); 31 g ai/ha): 0; Plant response rating, Foxtail, Giant ([4]; 31 g ai/ha): 90; Plant response rating, Pigweed ([5]; 31 g ai/ha): 0; Plant response rating, Ryegrass, Italian ([6]; 31 g ai/ha): 30; Plant response rating, Barnyardgrass ([7]; 31 g ai/ha): 70; Plant response rating, Blackgrass ([8]; 31 g ai/ha): 0; Plant response rating, Ragweed ([9]; 31 g ai/ha): 0; Plant response rating, Wheat ([10]; 31 g ai/ha): 0; Plant response rating, Barnyardgrass ([11]; 31 g ai/ha): 60; Plant response rating, Ryegrass, Italian ([12]; 31 g ai/ha): 0; Plant response rating, Pigweed ([13]; 31 g ai/ha): 0; Plant response rating, Foxtail, Giant ([14]; 31 g ai/ha): 70; Plant response rating, Galium ([15]; 31 g ai/ha): 40 |
| O=C1NCC(c2cccc(Cn3cccn3)c2)C1C(=O)Nc1cccc(F)c1F (centres unmarked) [Compound 30] | 0 | 0 | 0 | 0 | 20 | 0 | 0 | 0 | 0 | 0 | 0 | 20 | 0 | 0 | 30 | 0 | 0 | 0 | 0 | 0 | Plant response rating, Foxtail, Giant ([4]; 500 g ai/ha): 90; Plant response rating, Pigweed ([5]; 500 g ai/ha): 0; Plant response rating, Ryegrass, Italian ([6]; 500 g ai/ha): 0; Plant response rating, Barnyardgrass ([7]; 500 g ai/ha): 50; Plant response rating, Blackgrass [8, 17]: 0; Plant response rating, Ragweed ([9]; 500 g ai/ha): 0; Plant response rating, Wheat [10, 17]: 0; Plant response rating, Barnyardgrass [11, 17]: 60; Plant response rating, Ryegrass, Italian [12, 17]: 0; Plant response rating, Pigweed [13, 17]: 0; Plant response rating, Foxtail, Giant [14, 17]: 50; Plant response rating, Galium [15, 17]: 0 |
| O=C1NCC(c2cccc(COc3ccccc3)c2)C1C(=O)Nc1ccccc1F (centres unmarked) [Compound 19] | 0 | 0 | 0 | 0 | 30 | 0 | 0 | 30 | 0 | 0 | 0 | 20 | 0 | 0 | 20 | 0 | 0 | 0 | 40 | 0 | Plant response rating, Foxtail, Giant ([4]; 500 g ai/ha): 80; Plant response rating, Pigweed ([5]; 500 g ai/ha): 0; Plant response rating, Ryegrass, Italian ([6]; 500 g ai/ha): 0; Plant response rating, Barnyardgrass ([7]; 500 g ai/ha): 70; Plant response rating, Blackgrass [8, 17]: 0; Plant response rating, Ragweed ([9]; 500 g ai/ha): 0; Plant response rating, Wheat [10, 17]: 0; Plant response rating, Barnyardgrass [11, 17]: 50; Plant response rating, Ryegrass, Italian [12, 17]: 0; Plant response rating, Pigweed [13, 17]: 0; Plant response rating, Foxtail, Giant [14, 17]: 40; Plant response rating, Galium [15, 17]: 0 |
| O=C1NCC(c2cccc(Oc3ncc(Cl)cn3)c2)C1C(=O)Nc1ccccc1F (centres unmarked) [Compound 55] | 0 | 0 | 0 | 0 | 80 | 0 | 0 | 0 | 0 | 0 | 0 | 30 | 0 | 0 | 70 | 0 | 0 | 0 | 20 | 0 | Plant response rating, Foxtail, Giant ([4]; 500 g ai/ha): 90; Plant response rating, Pigweed ([5]; 500 g ai/ha): 0; Plant response rating, Ryegrass, Italian ([6]; 500 g ai/ha): 20; Plant response rating, Barnyardgrass ([7]; 500 g ai/ha): 80; Plant response rating, Blackgrass [8, 17]: 0; Plant response rating, Ragweed ([9]; 500 g ai/ha): 0; Plant response rating, Wheat [10, 17]: 0; Plant response rating, Barnyardgrass [11, 17]: 80; Plant response rating, Ryegrass, Italian [12, 17]: 30; Plant response rating, Pigweed [13, 17]: 0; Plant response rating, Foxtail, Giant [14, 17]: 80; Plant response rating, Galium [15, 17]: 30 |

From US10405547B2, “Substituted cyclic amides as herbicides” (FMC Corporation, priority 2015, dated 2019)
